The record followed here is publication PMC12915131, “Balanced Expression of the Diiron Oxygenase BioE Is Essential for Biotin Homeostasis in Elizabethkingia meningoseptica” (Advanced Science, 2025).

For one assay, the target named is T1, EmBioE.
T1 construct: gene bioE; 6x His-tagged EmBioE
The assay is described as follows: SPR, confirmed by MST; HPLC shows conversion to pimeloyl-CoA. Type of assay: binding, Elizabethkingia meningoseptica. (In general: SPR reads the build-up and loss of mass on a sensor chip optically.)

In a further assay the target is T2, EmBioE (BioE).
T2 construct: 6x His-tagged EmBioE
The assay is described as follows: SPR (Biacore, CM5 chip); supported by urea-PAGE inhibition of C18-ACP cleavage (Ki […]). It counts as binding, Elizabethkingia meningoseptica.

What is called Kd is the constant that tells how readily two partners part at equilibrium. Higher therefore signals weaker binding. `CCCCCCCCCCCCCCCCCC(=O)SCCNC(=O)CCNC(=O)[C@H](O)C(C)(C)COP(=O)(O)OP(=O)(O)OC[C@H]1O[C@@H](n2cnc3c(N)ncnc32)[C@H](O)[C@@H]1OP(=O)(O)O` [C18-CoA, stearoyl-CoA]: at EmBioE, the Kd was roughly 20.1 µM. On EmBioE (BioE), `C=CCn1c(SCC(=O)Nc2scc(-c3ccc(C)cc3)c2C(=O)OC)nnc1-c1ccc(N(C)C)cc1` [compound 466982, 466982] gave a Kd of roughly 14.6 µM.
